Assay results reported in PubChem BioAssay AID1996.
Converted amounts (≈) assume the structure as drawn.

conditions: buffer; pH 7.4; 200.0 µM

Structure (SMILES)	solubility kinetic
O=C(CSc1ncccn1)Nc1cc(Cl)ccc1[N+](=O)[O-]	4.7 µg/mL (≈ 14.5 µM)
Cc1c(Cl)cccc1NC(=S)NC(=O)c1cncc(Br)c1	5.1 µg/mL (≈ 13.3 µM)
Cc1onc(-c2c(Cl)cccc2Cl)c1C(=O)N=C(N)N1CCCC1	12 µg/mL (≈ 32.7 µM)
Nc1ccccc1N=c1ssnc1Cl	> 36.6 µg/mL
Cc1cc(N2CCN(C(=O)c3cccs3)CC2)c(F)cc1[N+](=O)[O-]	1.5 µg/mL (≈ 4.29 µM)
Cc1cc(OCC(=O)Nc2ccccc2C)no1	> 36.9 µg/mL
Cc1cnc(C(=O)NCC(c2ccccc2)c2ccccc2)cn1	0.8 µg/mL (≈ 2.52 µM)
O=C(CSc1nnc2ccccn12)NC(=O)c1ccccc1	> 46.9 µg/mL
CC1(C)CC(=O)C=C(Nc2cccc(Cl)c2Cl)C1	37.3 µg/mL (≈ 131 µM)
Cc1cccc(NC(=S)NC(=O)C2CC2)c1	> 35.1 µg/mL
CC(C)c1nc2sc(C(=O)O)c(N)c2c2c1CCCC2	14.6 µg/mL (≈ 50.3 µM)
CSc1ncc(C(=O)Nc2ccc(Cl)cc2)c(C)n1	12.7 µg/mL (≈ 43.2 µM)
CCN1CCN(Cc2nnc(-c3ccc(C)cc3)o2)CC1	> 43 µg/mL
COc1ccc2occ(C(=O)c3ccc(N)cc3)c2c1	1.7 µg/mL (≈ 6.36 µM)
O=C(CNC(=O)c1ccccc1F)NCc1ccccn1	> 43.1 µg/mL
COc1cccc(C(=O)NCCCNC(=O)c2ccccn2)c1	43.3 µg/mL (≈ 138 µM)
COc1ccc(NCc2cc(=O)[nH]c3ccccc23)cc1	8 µg/mL (≈ 28.5 µM)
COc1ccc(NC(=O)C2C(c3ccccc3)C2(Cl)Cl)cc1 (configuration not stated)	< 0.7 µg/mL
Cc1nsc(Nc2ccccc2)c1C#N	7.7 µg/mL (≈ 35.8 µM)
O=C(COC(=O)C1CCCCC1)NCc1ccc(Cl)cc1	31.7 µg/mL (≈ 102 µM)

Structure (SMILES)	solubility kinetic
COc1ccc(NC(=O)CN2CCN(c3c(C)cc(C)cc3C)CC2)cc1	3.9 µg/mL (≈ 10.6 µM)
CCOc1ccc2nc(N3C(=O)CNC3=S)sc2c1	2.5 µg/mL (≈ 8.52 µM)
CN1C(c2ccccc2)=NO[C@]1(C)c1ccccc1	35.9 µg/mL (≈ 142 µM)
COc1ccc(NC(=O)C2CC3CCC2C3)c(OC)c1 (configuration not stated)	31.5 µg/mL (≈ 114 µM)
Cc1ccc(OCc2cc(C(=O)NC3CCOC3)no2)cc1C (configuration not stated)	33.1 µg/mL (≈ 105 µM)
CCOC(=O)c1c(C)n(C)c2cc(Br)c(OC)cc12	< 0.7 µg/mL
CCOc1ccc(C2(C)CC(=O)N(C)C2=O)cc1 (configuration not stated)	11.4 µg/mL (≈ 46.1 µM)
CC(Sc1nncn1C)C(=O)NCCC1=CCCCC1 (configuration not stated)	> 44.2 µg/mL
COc1ccc(NC(=S)NCCN2CCC(C)CC2)cc1	> 46.1 µg/mL
Brc1ccc2c(c1)[C@H]1OCC[C@H]1[C@@H](c1cccs1)N2	1.4 µg/mL (≈ 4.16 µM)
O=C(Nc1cccnc1)Nc1cccc([N+](=O)[O-])c1	10 µg/mL (≈ 38.7 µM)
N#Cc1ccc(NC(=O)CN2CCCCCC2)cc1Cl	26.4 µg/mL (≈ 90.5 µM)
Clc1ccc(OCC#CCN2CCCC2)cc1.O=C(O)C(=O)O	45.1 µg/mL
Cc1ccc2c(c1)sc(=NC(=O)C1CC1)n2C	15.5 µg/mL (≈ 62.9 µM)
COc1ccccc1-c1cc(C(=O)N2CCOCC2)no1	> 43.2 µg/mL
O=C(COC(=O)C1CCCC1)Nc1ncc(Cl)cc1Cl	> 47.6 µg/mL
COc1cccc(C2Nc3ccccc3C(=O)N2Cc2ccccc2)c1 (configuration not stated)	17.3 µg/mL (≈ 50.2 µM)
COc1ccsc1C(=O)NCCN1CCOCC1	39.7 µg/mL (≈ 147 µM)
COc1ccccc1OCCn1cc(C=O)c2ccccc21	7.8 µg/mL (≈ 26.4 µM)
CC1(C)C(C(=O)N2CCN(c3ccc(Cl)cc3)CC2)C1(C)C	0.5 µg/mL (≈ 1.56 µM)

Structure (SMILES)	solubility kinetic
N/C(=N\OC(=O)Cc1ccc([N+](=O)[O-])cc1)c1ccccn1	26.6 µg/mL (≈ 88.6 µM)
O=C(NC(=S)Nc1ccc(Cl)c(C(=O)O)c1)c1ccco1	> 48.7 µg/mL
CC(=O)Nc1nc2ccccc2n1Cc1ccc(C)cc1	8.1 µg/mL (≈ 29 µM)
COc1cc(/C=N/c2oc(C)c(C)c2C#N)cc(Br)c1O	8 µg/mL (≈ 22.9 µM)
COc1cccc(C=NCCCN=Cc2cccc(OC)c2O)c1O	> 51.4 µg/mL
CCN(CC)CCCNC(=O)c1cc(-c2ccc3c(c2)OCO3)on1	49.4 µg/mL (≈ 143 µM)
Cc1nc(/C(N)=N/OC(=O)c2c(-c3ccccc3Cl)noc2C)cs1	48.2 µg/mL (≈ 128 µM)
O=S(=O)(NC1=NCCCCC1)c1ccc(F)cc1F	> 43.2 µg/mL
O=C(Nc1ccc2ncccc2c1)c1ccccc1	30.7 µg/mL (≈ 124 µM)
COc1c(O)cccc1/C=N/NC(=O)Cn1ccnc1C	> 43.2 µg/mL
CCOC(=O)CN1C(=O)CCSc2ccc(Cl)cc21	> 45 µg/mL
Cc1cc(NC(=O)C(Cl)(Cl)Cl)no1	35.7 µg/mL (≈ 147 µM)
COc1ccc(-c2cc(-c3ccc(O)cc3)nc(N)c2C#N)cc1OC	1.7 µg/mL (≈ 4.89 µM)
CCn1c(SCC(=O)Nc2ccccc2OC)nc(O)cc1=O	47.7 µg/mL (≈ 142 µM)
Fc1ccccc1N1CCN(CC2CCCCC2)CC1	6.2 µg/mL (≈ 22.4 µM)
O=[N+]([O-])c1ccc(-c2nc(-c3ccncc3)no2)cc1	1.3 µg/mL (≈ 4.85 µM)
N/C(=N\OC(=O)c1cccs1)c1ccc(Cl)cc1	3.5 µg/mL (≈ 12.5 µM)
Cn1cnc([N+](=O)[O-])c1Cl	> 24.2 µg/mL
COc1ccc(/C=C/C(=O)c2c(C)cc(C)[nH]c2=O)c2ccccc12	15.7 µg/mL (≈ 47.1 µM)
O=C(NCCCn1ccnc1)c1ccc(-c2cccc(C(F)(F)F)c2)o1	> 54.5 µg/mL

Second part, the compound after the results:

solubility kinetic	Structure (SMILES)
15.3 µg/mL (≈ 49.9 µM)	CN(Cc1ccccc1)S(=O)(=O)c1ccccc1[N+](=O)[O-]
3.9 µg/mL (≈ 14.6 µM)	CC(C)c1ccc(NC(=O)CCc2ccccc2)cc1
> 59 µg/mL	NS(=O)(=O)c1ccc(CNC(=O)C2CCCN2C(=O)c2cccs2)cc1 (configuration not stated)
15.4 µg/mL (≈ 42.1 µM)	CN(CC(=O)Nc1cccc(F)c1)CC(=O)Nc1cccc2ccccc12
> 51.3 µg/mL	O=C(O)C1CCN(C(=O)COc2ccc(Br)cc2)CC1
7.5 µg/mL (≈ 15.4 µM)	CC(C)N(Cc1ccccc1)C(=O)COC(=O)c1cc(S(=O)(=O)N(C)C)ccc1N1CCCC1
> 45.6 µg/mL	CCOC(=O)CN1C(=O)C(=O)N(Cc2cccc(C)c2)C1=O
> 51.8 µg/mL	O=C(COC(=O)CCC(=O)c1cccs1)NCCc1ccccc1
2.7 µg/mL (≈ 8.03 µM)	CC(=O)c1c(COC(=O)c2ccc(C)cc2)nc2ccccc2[n+]1[O-]
23.9 µg/mL (≈ 53.8 µM)	Cc1ccc(S(=O)(=O)N2CCOCC2)cc1C(=O)Nc1nc(-c2ccccn2)cs1
1.3 µg/mL (≈ 4.4 µM)	Cc1ccc(C(=O)CCC(=O)Nc2ccccc2C)c(C)c1
< 0.2 µg/mL	CC(C)CC(=O)NC(=S)Nc1ccc(N2CCCC2)c(Cl)c1
> 49.3 µg/mL	CSc1ccccc1NC(=O)CCn1c(=O)oc2ccccc21
> 46.4 µg/mL	Cc1cccc(NC(=O)C2CC(=O)N(Cc3ccccc3)C2)n1 (configuration not stated)
11.3 µg/mL (≈ 43.2 µM)	O=C(NOCc1ccccc1)c1ccc(Cl)cc1
> 52 µg/mL	CC(=O)N1CCN(c2nnc(-c3ccc(C)cc3)c3ccccc23)CC1
2.2 µg/mL (≈ 6.66 µM)	CCc1cc(C(=O)Nc2ccccc2N2CCOCC2)sc1C
> 58.1 µg/mL	CCOC(=O)C1CCCN(C(=O)CNC(=O)c2ccc(Br)o2)C1 (configuration not stated)
9.6 µg/mL (≈ 39.6 µM)	O=C(Nc1cccc([N+](=O)[O-])c1)c1ccccc1
45.1 µg/mL (≈ 141 µM)	O=C(O)Cc1ccc(NC(=O)Nc2cccc3ccccc23)cc1
0.5 µg/mL (≈ 1.68 µM)	CCN(CC)c1ccc(C(=S)NCc2ccccc2)cc1
1.5 µg/mL (≈ 4.61 µM)	O=C(Nc1cccc([N+](=O)[O-])c1)c1ccc(N2CCCC2=O)cc1
43.8 µg/mL (≈ 147 µM)	COc1cccc(C(=O)N2CCN(c3ccccn3)CC2)c1
46 µg/mL (≈ 132 µM)	CCC(=O)OCC(=O)Nc1cc(S(=O)(=O)N(C)C)ccc1Cl
26.7 µg/mL (≈ 85.5 µM)	CC(C)CC(=O)Nc1ccc(C(=O)Nc2cccc(O)c2)cc1
> 42.9 µg/mL	O=C1CCC(C(=O)Nc2ccccc2N2CCCC2)=NN1
36 µg/mL (≈ 85.2 µM)	Cc1ccc(NC(=O)CN(C)C(=O)COC(=O)c2ccc(NC(=O)CC#N)cc2)cc1
